The test system of assay [1] is UM-UC-9 engineered cells. As to the kind of experiment: Cell proliferation / short-term viability assay, CellTiter-Glo 144 h. In kind it is cell-based, human. To be noted: Homo sapiens, UM-UC-9, 144 h, read-out: CTGlo 144 h UMUC9.5, G150. In short, it runs like this:
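UM-UC-9 engineered assay-ready cells seeded at 500 cells/well in high-glucose DMEM/10% FBS, treated from dose-response plates, grown at 37° C, 5% CO2. CellTiter-Glo 2.0 luminescence read on day 7, with a day-0 pretreatment plate as T0 reference and DMSO wells as negative control.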

For assay [2], the target named is T1, His6-TEV-PPARγ-(234-505) (Homo sapiens, UniProt P37231).
T1 construct: The His6-TEV-PPARγ-(234-505) protein for assay was expressed and purified; TEV cleavage site (N); made in house
T1 sequence (P37231 234-505): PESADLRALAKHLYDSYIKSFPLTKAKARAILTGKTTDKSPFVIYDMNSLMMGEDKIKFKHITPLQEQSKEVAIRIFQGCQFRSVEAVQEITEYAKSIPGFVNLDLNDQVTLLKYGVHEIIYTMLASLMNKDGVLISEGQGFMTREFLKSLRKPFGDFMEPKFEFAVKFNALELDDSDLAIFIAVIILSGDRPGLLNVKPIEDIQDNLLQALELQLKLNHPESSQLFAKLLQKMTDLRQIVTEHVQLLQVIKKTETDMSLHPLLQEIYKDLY
The assay is described as follows: TR-FRET Assay to Measure Co-R Peptide Recruitment to PPARγ. The format is biochemical. To be noted: Co-R peptide (SMRT-ID2) recruitment; top final concentration 20 μM; read-out: TR-FRET i-Ag; AC50. In short, it runs like this: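 His-tagged PPARγ (or controls) was preincubated with compound for 20 minutes at room temperature, then 5 nM anti-His terbium antibody and 200 nM FITC-labeled SMRT-ID2 corepressor peptide (final) were added for a further hour. TR-FRET signal was normalized to percent response using 500 nM T0070907 and DMSO controls.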

Molecules are shown by their SMILES.

`COc1cc(-c2cc(C(=O)N3[C@@H]4CC[C@H]3C[C@H](C(=O)NC3CCC(O)(C(F)(F)CO)CC3)C4)n[nH]2)c(F)cn1` (stereo partly drawn) [Example 436, (1R,3s,5S)—N-(4-(1,1-difluoro-2-hydroxyethyl)-4-hydroxycyclohexyl)-8-(5-(5-fluoro-2-methoxypyridin-4-yl)-1H-pyrazole-3-carbonyl)-8-azabicyclo[3.2.1]octane-3-carboxamide]: the IC50 in assay [1] is more than 10000 nM. In assay [2], the AC50 is 132 nM.
The like results for `COc1cc(-c2cc(C(=O)N3[C@@H]4CC[C@H]3C[C@H](C(=O)N[C@@H]3CCN(CC5(C(F)(F)F)CC5)C3)C4)n[nH]2)c(F)cn1` [Example 437, (1R,3s,5S)-8-(5-(5-fluoro-2-methoxypyridin-4-yl)-1H-pyrazole-3-carbonyl)-N—((R)-1-((1-(trifluoromethyl)cyclopropyl)methyl)pyrrolidin-3-yl)-8-azabicyclo[3.2.1]octane-3-carboxamide] were, in that order, 67.6 nM and 14.8 nM.
`COc1cc(-c2cc(C(=O)N3CC[C@H](C(=O)NCC45CC(C4)N(CC(C)(C)F)C5)CC34CC4)n[nH]2)c(F)cn1` [Example 440, (S)-4-(5-(5-fluoro-2-methoxypyridin-4-yl)-1H-pyrazole-3-carbonyl)-N-((2-(2-fluoro-2-methylpropyl)-2-azabicyclo[2.1.1]hexan-4-yl)methyl)-4-azaspiro[2.5]octane-7-carboxamide]: the IC50 in assay [1] is 927 nM. In addition, the AC50 in assay [2] is 410 nM.
The corresponding values for `COc1cc(-c2cc(C(=O)N3[C@@H]4CC[C@H]3C[C@H](C(=O)NC3CCC(N)(C(F)(F)F)CC3)C4)n[nH]2)c(F)cn1` (stereo partly drawn) [Example 441, (1R,3s,5S)—N-(4-amino-4-(trifluoromethyl)cyclohexyl)-8-(5-(5-fluoro-2-methoxypyridin-4-yl)-1H-pyrazole-3-carbonyl)-8-azabicyclo[3.2.1]octane-3-carboxamide] are 350 nM and 56.7 nM.
The corresponding values for `COc1cc(-c2cc(C(=O)N3CC[C@H](C(=O)NC45CC(C4)N(CC(C)(C)F)C5)CC34CC4)n[nH]2)c(F)cn1` [Example 442, (S)-4-(5-(5-fluoro-2-methoxypyridin-4-yl)-1H-pyrazole-3-carbonyl)-N-(2-(2-fluoro-2-methylpropyl)-2-azabicyclo[2.1.1]hexan-4-yl)-4-azaspiro[2.5]octane-7-carboxamide] are 583 nM and 399 nM.
On to `COc1cc(-c2cc(C(=O)N3CC[C@H](C(=O)NCC45COC(C(F)(F)F)(C4)C5)CC34CC4)n[nH]2)c(F)cn1` [Example 443, (S)-4-(5-(5-fluoro-2-methoxypyridin-4-yl)-1H-pyrazole-3-carbonyl)-N-((1-(trifluoromethyl)-2-oxabicyclo[2.1.1]hexan-4-yl)methyl)-4-azaspiro[2.5]octane-7-carboxamide], for which the IC50 in assay [1] turned out to be 40.3 nM. Further, the AC50 in assay [2] was 21.4 nM.
In the case of `COc1cc(-c2cc(C(=O)N3CCC(C(=O)N[C@H]4CC[C@@](O)(C(F)(F)F)CC4)CC34COC4)n[nH]2)c(F)cn1` (stereo partly shown) [Example 444, 5-(5-(5-fluoro-2-methoxypyridin-4-yl)-1H-pyrazole-3-carbonyl)-N-((1r,4r)-4-hydroxy-4-(trifluoromethyl)cyclohexyl)-2-oxa-5-azaspiro[3.5]nonane-8-carboxamide], the IC50 in assay [1] is more than 10000 nM. Also, the AC50 in assay [2] is 113 nM.
As for `COc1cc(-c2cc(C(=O)N3CC[C@H](C(=O)NCc4ncc(OC5COC5)cc4Cl)CC34CC4)n[nH]2)c(F)cn1` [Example 446, (S)—N-((3-chloro-5-(oxetan-3-yloxy)pyridin-2-yl)methyl)-4-(5-(5-fluoro-2-methoxypyridin-4-yl)-1H-pyrazole-3-carbonyl)-4-azaspiro[2.5]octane-7-carboxamide], in assay [1], the IC50 amounted to 27.4 nM. The AC50 in assay [2] amounted to 1.3 nM.
The corresponding values for `COc1cc(-c2cc(C(=O)N3CC[C@H](C(=O)NCc4ncc(N5CC(C)NC(C)C5)cn4)CC34CC4)n[nH]2)c(F)cn1` (stereo partly drawn) [Example 447, (7S)—N-((5-(3,5-dimethylpiperazin-1-yl)pyrimidin-2-yl)methyl)-4-(5-(5-fluoro-2-methoxypyridin-4-yl)-1H-pyrazole-3-carbonyl)-4-azaspiro[2.5]octane-7-carboxamide] are 3630 nM and 508 nM.
The corresponding values for `COc1cc(-c2cc(C(=O)N3CC[C@H](C(=O)NC4(C#N)CC4)CC34CC4)n[nH]2)c(F)cn1` [Example 448, (S)—N-(1-cyanocyclopropyl)-4-(5-(5-fluoro-2-methoxypyridin-4-yl)-1H-pyrazole-3-carbonyl)-4-azaspiro[2.5]octane-7-carboxamide] are 1640 nM and 123 nM.
The corresponding values for `COc1cnc(CNC(=O)[C@H]2CCN(C(=O)c3cc(-c4cc(OC)ncc4F)[nH]n3)C3(CC3)C2)nc1` [Example 455, (S)-4-(5-(5-fluoro-2-methoxypyridin-4-yl)-1H-pyrazole-3-carbonyl)-N-((5-methoxypyrimidin-2-yl)methyl)-4-azaspiro[2.5]octane-7-carboxamide] are 213 nM and 67.9 nM.
In the case of `COc1cc(-c2cc(C(=O)N3CC[C@H](C(=O)NCc4ncc(C(F)(F)F)cn4)CC34CC4)n[nH]2)c(F)cn1` [Example 457, (S)-4-(5-(5-fluoro-2-methoxypyridin-4-yl)-1H-pyrazole-3-carbonyl)-N-((5-(trifluoromethyl)pyrimidin-2-yl)methyl)-4-azaspiro[2.5]octane-7-carboxamide], in assay [1], the IC50 stood at 414 nM. Further, the AC50 in assay [2] was 13.4 nM.
In the case of `COc1cc(-c2cc(C(=O)N3CC[C@H](C(=O)NC4(c5ncc(Cl)cc5Cl)CC4)CC34CC4)n[nH]2)c(F)cn1` [Example 458, (S)—N-(1-(3,5-dichloropyridin-2-yl)cyclopropyl)-4-(5-(5-fluoro-2-methoxypyridin-4-yl)-1H-pyrazole-3-carbonyl)-4-azaspiro[2.5]octane-7-carboxamide], in assay [1], the IC50 is 26.6 nM. Further, the AC50 in assay [2] was determined as 3.8 nM.
As for `COc1cc(-c2cc(C(=O)N3CC[C@H](C(=O)NCC4(O)COC4)CC34CC4)[nH]n2)c(F)cn1` [Example 463, (S)-4-(3-(5-fluoro-2-methoxypyridin-4-yl)-1H-pyrazole-5-carbonyl)-N-((3-hydroxyoxetan-3-yl)methyl)-4-azaspiro[2.5]octane-7-carboxamide], the IC50 in assay [1] stood at 5200 nM. In addition, the AC50 in assay [2] was determined as 180 nM.
`COc1cc(-c2cc(C(=O)N3CC[C@H](C(=O)NCc4nc(C)c(C)n4C)CC34CC4)n[nH]2)c(F)cn1` [Example 465, (S)-4-(5-(5-fluoro-2-methoxypyridin-4-yl)-1H-pyrazole-3-carbonyl)-N-((1,4,5-trimethyl-1H-imidazol-2-yl)methyl)-4-azaspiro[2.5]octane-7-carboxamide]: the IC50 in assay [1] was 842 nM. The AC50 in assay [2] came out at 88.6 nM.
The corresponding values for `COc1cc(-c2cc(C(=O)N3CC[C@H](C(=O)NC4CCNC4)CC34CC4)n[nH]2)c(F)cn1` (stereo partly drawn) [Example 471, (7S)-4-(5-(5-fluoro-2-methoxypyridin-4-yl)-1H-pyrazole-3-carbonyl)-N-(pyrrolidin-3-yl)-4-azaspiro[2.5]octane-7-carboxamide] are more than 10000 nM and 62.6 nM.
The corresponding values for `COc1cc(-c2cc(C(=O)N3CC[C@H](C(=O)NCc4nc(C)nn4C(C)C)CC34CC4)n[nH]2)c(F)cn1` [Example 473, (S)-4-(5-(5-fluoro-2-methoxypyridin-4-yl)-1H-pyrazole-3-carbonyl)-N-((1-isopropyl-3-methyl-1H-1,2,4-triazol-5-yl)methyl)-4-azaspiro[2.5]octane-7-carboxamide] are 3390 nM and 443 nM.
The like results for `COc1cc(-c2cc(C(=O)N3CC[C@H](C(=O)NCc4ncc(C(F)(F)F)[nH]4)CC34CC4)[nH]n2)c(F)cn1` [Example 476, (S)-4-(3-(5-fluoro-2-methoxypyridin-4-yl)-1H-pyrazole-5-carbonyl)-N-((5-(trifluoromethyl)-1H-imidazol-2-yl)methyl)-4-azaspiro[2.5]octane-7-carboxamide] were, in that order, 406 nM and 17.4 nM.
Take `CC(=O)c1cc(-c2cc(C(=O)N3CCC(C(=O)NCc4ncc(F)cc4Cl)CC34CC4)n[nH]2)c(F)cn1` (stereo not shown) [Example 477, 4-(5-(2-acetyl-5-fluoropyridin-4-yl)-1H-pyrazole-3-carbonyl)-N-((3-chloro-5-fluoropyridin-2-yl)methyl)-4-azaspiro[2.5]octane-7-carboxamide]: the IC50 in assay [1] was determined as 307 nM. In assay [2], the AC50 was 42.8 nM.
For the molecule `COc1cc(-c2cc(C(=O)N3CC[C@H](C(=O)NCc4nc(N5C[C@@H](C)N[C@@H](C)C5)oc4C(F)(F)F)CC34CC4)n[nH]2)c(F)cn1` [Example 482, (S)—N-((2-((3S,5R)-3,5-dimethylpiperazin-1-yl)-5-(trifluoromethyl)oxazol-4-yl)methyl)-4-(5-(5-fluoro-2-methoxypyridin-4-yl)-1H-pyrazole-3-carbonyl)-4-azaspiro[2.5]octane-7-carboxamide], the IC50 in assay [1] was determined as 270 nM. The AC50 in assay [2] was 29.5 nM.

The record behind these values is patent US12606541B2, “PPARg modulators and methods of use” (Eisai R&D Management Co., Ltd., priority 2020, dated 2026).
